These results are taken from ChEMBL document CHEMBL4373715, “Discovery and Biological Evaluations of Halogenated 2,4-Diphenyl Indeno[1,2-b]pyridinol Derivatives as Potent Topoisomerase IIα-Targeted Chemotherapeutic Agents for Breast Cancer” (J Med Chem, 2019).

Structures are written as SMILES.

For one assay, the system named is HCT-15. Put plainly: Antiproliferative activity against human HCT15 cells measured after 72 hrs by EZ-Cytox assay. The format is functional, cell-based. The following applies: HCT-15, 72 h.
A further assay relates to T47D. Description: Antiproliferative activity against human T47D cells measured after 72 hrs by EZ-Cytox assay. The format is functional, cell-based.
Another assay deals with DU-145. Put plainly: Antiproliferative activity against human DU145 cells measured after 72 hrs by EZ-Cytox assay. The assay is classed as functional, cell-based. As to conditions: DU-145, 72 h.
Another assay deals with HeLa. Description: Antiproliferative activity against human HeLa cells measured after 72 hrs by EZ-Cytox assay. The assay is classed as functional, cell-based.
The target of assay [1] is T1, DNA topoisomerase 1 (Homo sapiens) (UniProt P11387).
T1 sequence (whole entry): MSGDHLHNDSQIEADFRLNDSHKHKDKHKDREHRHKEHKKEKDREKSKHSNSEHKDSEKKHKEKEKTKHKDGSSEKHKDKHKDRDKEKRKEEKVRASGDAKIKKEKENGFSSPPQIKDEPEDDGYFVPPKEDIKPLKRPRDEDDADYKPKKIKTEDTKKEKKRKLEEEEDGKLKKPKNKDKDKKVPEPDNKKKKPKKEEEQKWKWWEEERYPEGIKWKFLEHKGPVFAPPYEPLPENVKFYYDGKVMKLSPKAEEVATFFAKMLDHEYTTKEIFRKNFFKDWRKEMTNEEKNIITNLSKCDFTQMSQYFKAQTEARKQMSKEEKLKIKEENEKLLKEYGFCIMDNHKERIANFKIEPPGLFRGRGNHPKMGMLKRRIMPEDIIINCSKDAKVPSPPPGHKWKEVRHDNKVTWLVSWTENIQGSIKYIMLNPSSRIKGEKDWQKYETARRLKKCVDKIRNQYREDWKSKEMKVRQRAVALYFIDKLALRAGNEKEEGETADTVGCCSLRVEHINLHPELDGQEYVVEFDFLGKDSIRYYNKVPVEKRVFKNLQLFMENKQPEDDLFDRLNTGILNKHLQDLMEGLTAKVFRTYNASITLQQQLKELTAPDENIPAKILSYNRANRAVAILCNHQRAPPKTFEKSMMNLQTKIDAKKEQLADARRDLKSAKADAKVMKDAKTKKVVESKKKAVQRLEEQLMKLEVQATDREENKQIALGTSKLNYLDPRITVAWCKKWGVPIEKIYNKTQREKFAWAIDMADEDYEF
Description: Inhibition of recombinant human topoisomerase 1-mediated relaxation of supercoiled pBR322 DNA at 100 uM measured after 30 mins by ethidium bromide staining based agarose gel electrophoresis relative to control.

Assay [2] concerns the target DNA topoisomerase 2-alpha (Homo sapiens) (UniProt P11388). Put plainly: Inhibition of recombinant human topoisomerase 2alpha-mediated relaxation of supercoiled pBR322 DNA at 100 uM measured after 30 mins by ethidium bromide staining based agarose gel electrophoresis relative to control.
Assay [3] shares this target. Put plainly: Inhibition of recombinant human topoisomerase 2alpha-mediated relaxation of supercoiled pBR322 DNA at 20 uM measured after 30 mins by ethidium bromide staining based agarose gel electrophoresis relative to control.

Sequence of DNA topoisomerase 2-alpha (Homo sapiens) (P11388 whole entry): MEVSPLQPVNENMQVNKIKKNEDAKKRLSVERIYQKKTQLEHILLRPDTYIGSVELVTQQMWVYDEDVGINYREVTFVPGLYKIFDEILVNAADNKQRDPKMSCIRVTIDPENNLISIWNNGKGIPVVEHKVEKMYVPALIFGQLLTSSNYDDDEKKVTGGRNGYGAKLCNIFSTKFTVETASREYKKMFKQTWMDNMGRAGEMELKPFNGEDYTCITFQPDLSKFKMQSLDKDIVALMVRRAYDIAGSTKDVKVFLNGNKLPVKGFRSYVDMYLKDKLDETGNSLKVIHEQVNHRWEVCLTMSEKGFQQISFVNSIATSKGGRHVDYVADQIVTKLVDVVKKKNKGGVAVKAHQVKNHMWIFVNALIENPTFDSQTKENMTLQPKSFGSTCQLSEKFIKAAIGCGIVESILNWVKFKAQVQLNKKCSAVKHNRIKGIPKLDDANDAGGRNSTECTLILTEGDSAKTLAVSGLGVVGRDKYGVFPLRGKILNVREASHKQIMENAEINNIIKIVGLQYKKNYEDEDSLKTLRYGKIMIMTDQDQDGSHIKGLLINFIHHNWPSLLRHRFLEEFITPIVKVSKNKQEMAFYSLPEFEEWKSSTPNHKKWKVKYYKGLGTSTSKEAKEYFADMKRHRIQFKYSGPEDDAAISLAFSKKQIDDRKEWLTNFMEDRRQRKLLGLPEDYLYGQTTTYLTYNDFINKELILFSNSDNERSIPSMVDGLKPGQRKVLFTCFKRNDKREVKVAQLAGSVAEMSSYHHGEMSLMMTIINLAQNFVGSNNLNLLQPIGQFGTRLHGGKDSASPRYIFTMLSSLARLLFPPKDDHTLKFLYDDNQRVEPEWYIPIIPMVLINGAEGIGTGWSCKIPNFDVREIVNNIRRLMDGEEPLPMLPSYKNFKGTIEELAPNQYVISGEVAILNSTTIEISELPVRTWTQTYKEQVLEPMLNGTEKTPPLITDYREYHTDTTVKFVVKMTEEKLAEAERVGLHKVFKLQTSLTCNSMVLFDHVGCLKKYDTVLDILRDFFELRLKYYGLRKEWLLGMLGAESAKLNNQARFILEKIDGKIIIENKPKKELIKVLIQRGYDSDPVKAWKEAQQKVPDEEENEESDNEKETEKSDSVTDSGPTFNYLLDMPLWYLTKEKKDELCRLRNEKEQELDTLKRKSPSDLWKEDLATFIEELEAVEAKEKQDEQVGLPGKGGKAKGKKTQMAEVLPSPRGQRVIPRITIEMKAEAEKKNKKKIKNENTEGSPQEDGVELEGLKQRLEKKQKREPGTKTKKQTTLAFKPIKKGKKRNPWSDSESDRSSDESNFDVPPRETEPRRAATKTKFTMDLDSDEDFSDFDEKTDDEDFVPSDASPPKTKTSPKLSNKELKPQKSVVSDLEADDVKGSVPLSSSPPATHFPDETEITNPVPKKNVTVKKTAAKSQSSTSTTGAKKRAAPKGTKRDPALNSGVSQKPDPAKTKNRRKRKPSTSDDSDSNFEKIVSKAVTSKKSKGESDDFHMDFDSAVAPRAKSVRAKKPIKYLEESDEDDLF

As for `Oc1ccc(-c2cc(-c3cccc(Cl)c3)c3c(n2)-c2c(O)cccc2C3)cc1`, the concentration for half-maximal inhibition (IC50) in the assay on HCT-15 was more than 50 µM; with T47D, 19 µM; in the assay on DU-145, 6.04 µM; with HeLa, 43.8 µM. Further, the values for the inhibition in assay [1], in assay [2] and in assay [3] were 3.2%, 71.6% and 13.3%, respectively.
Take `Oc1ccc(-c2cc(-c3ccc(Cl)cc3)c3c(n2)-c2cccc(O)c2C3)cc1`: the IC50 was determined as 9.1 µM in the assay with HCT-15, 12.8 µM in the assay with T47D, 1.81 µM in the assay with DU-145 and 18.3 µM in the assay with HeLa. In addition, the inhibition was 1.3% in assay [1], 97% in assay [2] and 7.5% in assay [3].
`Oc1ccccc1-c1cc(-c2ccc(F)cc2)nc2c1Cc1c(O)cccc1-2`: the half-maximal inhibitory concentration (IC50) in the assay with HCT-15 turned out to be 4.31 µM; in the assay on T47D, 0.61 µM; in the assay with DU-145 it was 2.36 µM; in the assay with HeLa, 31.9 µM. The results for the inhibition in assay [1], in assay [2] and in assay [3] were 0%, 67% and 0%, respectively.
`Oc1cccc(-c2cc(-c3ccccc3C(F)(F)F)nc3c2Cc2cccc(O)c2-3)c1`: the IC50 with HCT-15 turned out to be 2.1 µM; in the assay on T47D, 1.75 µM; in the assay on DU-145, 1.14 µM; with HeLa, 4.69 µM. The inhibition is 15.9% in assay [1], 65.2% in assay [2] and 3.3% in assay [3].
Turning to `Oc1ccc(-c2cc(-c3ccccc3Cl)c3c(n2)-c2c(O)cccc2C3)cc1`, the IC50 with HCT-15 was 1.05 µM; in the assay on T47D, 0.96 µM; with DU-145, 0.86 µM; with HeLa, 2.79 µM. The inhibition in assay [1] worked out at 10.3%; in assay [2] it was 66.9%; in assay [3], 0.8%.
For `Oc1cccc(-c2cc(-c3ccccc3Cl)c3c(n2)-c2cccc(O)c2C3)c1`, the IC50 was 8.28 µM with HCT-15, 2.88 µM in the assay with T47D, 5.63 µM in the assay with DU-145 and 7.36 µM with HeLa. Also, the inhibition in assay [1] turned out to be 28.1%; in assay [2], 67.5%; in assay [3], 11.4%.
`Oc1cccc(-c2cc(-c3cccc(Cl)c3)c3c(n2)-c2c(O)cccc2C3)c1`: the IC50 with HCT-15 was more than 50 µM; with T47D it was more than 50 µM; in the assay on DU-145, 17.1 µM; in the assay with HeLa it was more than 50 µM. Moreover, the values for the inhibition in assay [1], in assay [2] and in assay [3] were 8.9%, 71.9% and 0.3%, respectively.
In the case of `Oc1ccc(-c2cc(-c3ccccc3)c3c(n2)-c2cc(O)ccc2C3)cc1`, the IC50 came to 1.43 µM with HCT-15, 3.43 µM in the assay with T47D, 0.57 µM with DU-145 and 2.74 µM in the assay on HeLa. Besides, the inhibition in assay [1] was determined as 20.9%; in assay [2], 54.8%; in assay [3], 9.3%.
With `Oc1ccc2c(c1)Cc1c(-c3cccc(Cl)c3)cc(-c3ccccc3O)nc1-2`, the IC50 in the assay on HCT-15, in the assay on T47D, in the assay with DU-145 and with HeLa was more than 50 µM in each case. Further, the results for the inhibition in assay [1], in assay [2] and in assay [3] were 1.6%, 74.3% and 3.4%, respectively.
Turning to `Oc1cccc(-c2cc(-c3cccc(Cl)c3)nc3c2Cc2cc(O)ccc2-3)c1`, the IC50 with HCT-15 was found to be 1.62 µM; in the assay with T47D it was 0.86 µM; in the assay with DU-145, 3.21 µM; with HeLa, 5.99 µM. Besides, the inhibition in assay [1] is 0%; in assay [2] it was 80.2%; in assay [3], 37.8%.
`Oc1ccc(-c2cc(-c3cccc(Cl)c3)nc3c2Cc2c(O)cccc2-3)cc1`: the IC50 came to 1.84 µM in the assay with HCT-15, 0.62 µM with T47D, 0.22 µM in the assay on DU-145 and 3.56 µM in the assay with HeLa. Besides, the results for the inhibition in assay [1], in assay [2] and in assay [3] were 1.2%, 72.8% and 36.9%, respectively.
For the molecule `Oc1cccc(-c2cc(-c3ccccc3F)nc3c2Cc2cc(O)ccc2-3)c1`, the half-inhibitory concentration (IC50) was determined as 3.58 µM in the assay with HCT-15, 2.24 µM with T47D, 1.62 µM with DU-145 and 3.98 µM in the assay with HeLa. Further, the inhibition in assay [1] turned out to be 9.1%; in assay [2] it was 44.6%; in assay [3], 4.9%.
Take `Oc1cccc(-c2cc(-c3cccc(Cl)c3)c3c(n2)-c2ccc(O)cc2C3)c1`: the IC50 is 25.3 µM in the assay with HCT-15, 22.6 µM in the assay with T47D, 6.29 µM in the assay on DU-145 and 7.74 µM in the assay on HeLa. For the same molecule, the results for the inhibition in assay [1], in assay [2] and in assay [3] were 3.7%, 83% and 27%, respectively.
As to `Oc1ccccc1-c1cc(-c2ccc(Cl)cc2)nc2c1Cc1c(O)cccc1-2`, the IC50 stood at 2.31 µM with HCT-15, 1.25 µM in the assay with T47D, 0.61 µM with DU-145 and 1.96 µM with HeLa. Moreover, the inhibition in assay [1] was found to be 14.5%; in assay [2], 80.3%; in assay [3], 7%.
Turning to `Oc1cccc(-c2cc(-c3cccc(C(F)(F)F)c3)nc3c2Cc2cccc(O)c2-3)c1`, the IC50 in the assay with HCT-15 is 14.2 µM; with T47D it was 3.63 µM; in the assay on DU-145, 2.77 µM; with HeLa, more than 50 µM. Further, the inhibition in assay [1] amounted to 0.2%; in assay [2], 71.6%; in assay [3], 0.7%.
For `Oc1ccc2c(c1)Cc1c(-c3ccccc3O)cc(-c3ccccc3)nc1-2`, the 50% inhibitory concentration (IC50) with HCT-15 was 2.08 µM; with T47D it was 2.44 µM; in the assay with DU-145, 1 µM; in the assay on HeLa, 27.4 µM. Further, the inhibition was found to be 8.2% in assay [1], 74.8% in assay [2] and 0% in assay [3].
Take `Oc1ccccc1-c1cc(-c2ccccc2Cl)c2c(n1)-c1c(O)cccc1C2`: the half-maximal inhibitory concentration (IC50) with HCT-15 is 2.03 µM; with T47D, 2.93 µM; with DU-145 it was 5.67 µM; in the assay on HeLa it was more than 50 µM. For the same molecule, the inhibition in assay [1] was 23.9%; in assay [2], 56.5%; in assay [3], 1.6%.
Regarding `Oc1cccc(-c2cc(-c3cccc(C(F)(F)F)c3)nc3c2Cc2ccc(O)cc2-3)c1`, the IC50 amounted to 8.61 µM in the assay on HCT-15, 1.33 µM with T47D, 1.54 µM with DU-145 and 4.7 µM in the assay with HeLa. Also, the inhibition in assay [1] came out at 5.2%; in assay [2], 90.7%; in assay [3], 10.5%.
Regarding `Oc1cccc(-c2cc(-c3ccc(C(F)(F)F)cc3)nc3c2Cc2cc(O)ccc2-3)c1`, the IC50 in the assay with HCT-15 amounted to 6.82 µM; with T47D it was 8.9 µM; with DU-145, 1.59 µM; with HeLa it was 11.4 µM. The inhibition in assay [1] came out at 2.8%; in assay [2] it was 100%; in assay [3], 14.9%.
`Oc1cccc(-c2cc(-c3cccc(Cl)c3)nc3c2Cc2c(O)cccc2-3)c1`: the half-inhibitory concentration (IC50) in the assay with HCT-15 worked out at 1.13 µM; in the assay on T47D it was 1.52 µM; in the assay with DU-145 it was 1.49 µM; with HeLa, 3.31 µM. In addition, the inhibition in assay [1] was determined as 0.5%; in assay [2], 100%; in assay [3] it was 24.1%.
Regarding `Oc1ccc(-c2cc(-c3cccc(Cl)c3)c3c(n2)-c2cccc(O)c2C3)cc1`, the 50% inhibitory concentration (IC50) in the assay on HCT-15 worked out at 2.39 µM; in the assay on T47D, 1.92 µM; with DU-145, 1.64 µM; in the assay with HeLa, 1.66 µM. Besides, the inhibition turned out to be 6.1% in assay [1], 75.3% in assay [2] and 2.2% in assay [3].
As for `Oc1ccc(-c2cc(-c3ccc(Cl)cc3)nc3c2Cc2ccc(O)cc2-3)cc1`, the IC50 with HCT-15 worked out at 3.22 µM; in the assay with T47D, 1.15 µM; in the assay on DU-145 it was 2.25 µM; in the assay with HeLa it was 1.73 µM. Further, the inhibition in assay [1] amounted to 0%; in assay [2], 74.5%; in assay [3], 0%.
Take `Oc1ccccc1-c1cc(-c2ccccc2C(F)(F)F)nc2c1Cc1c(O)cccc1-2`: the IC50 with HCT-15 turned out to be 1.74 µM; in the assay on T47D, 3.02 µM; in the assay on DU-145 it was 1.38 µM; with HeLa, 3.95 µM. The inhibition in assay [1] was 3.5%; in assay [2], 83.7%; in assay [3], 1.8%.
With `Oc1cccc(-c2cc(-c3ccc(F)cc3)nc3c2Cc2cc(O)ccc2-3)c1`, the IC50 with HCT-15 is 1.92 µM; in the assay with T47D, 1.72 µM; in the assay on DU-145 it was 2.94 µM; with HeLa it was 3.74 µM. In addition, the inhibition worked out at 22.3% in assay [1], 65.1% in assay [2] and 28.7% in assay [3].

Usually IC50 stands for the midpoint of a concentration-inhibition curve. As usually defined, the inhibition is the share of the control response that was lost under treatment.
